IC50 data for 25 molecules are collected here from patent US7803793B2, “Heterocyclic derived metalloprotease inhibitors” (Janssen Pharmaceutica NV, priority 2006, dated 2010).

One experiment has as its target T1, MMP-2 (Homo sapiens, UniProt P08253).
T1 construct: Human MMP-2 full length (aa 1-660)
T1 sequence (P08253 30-660): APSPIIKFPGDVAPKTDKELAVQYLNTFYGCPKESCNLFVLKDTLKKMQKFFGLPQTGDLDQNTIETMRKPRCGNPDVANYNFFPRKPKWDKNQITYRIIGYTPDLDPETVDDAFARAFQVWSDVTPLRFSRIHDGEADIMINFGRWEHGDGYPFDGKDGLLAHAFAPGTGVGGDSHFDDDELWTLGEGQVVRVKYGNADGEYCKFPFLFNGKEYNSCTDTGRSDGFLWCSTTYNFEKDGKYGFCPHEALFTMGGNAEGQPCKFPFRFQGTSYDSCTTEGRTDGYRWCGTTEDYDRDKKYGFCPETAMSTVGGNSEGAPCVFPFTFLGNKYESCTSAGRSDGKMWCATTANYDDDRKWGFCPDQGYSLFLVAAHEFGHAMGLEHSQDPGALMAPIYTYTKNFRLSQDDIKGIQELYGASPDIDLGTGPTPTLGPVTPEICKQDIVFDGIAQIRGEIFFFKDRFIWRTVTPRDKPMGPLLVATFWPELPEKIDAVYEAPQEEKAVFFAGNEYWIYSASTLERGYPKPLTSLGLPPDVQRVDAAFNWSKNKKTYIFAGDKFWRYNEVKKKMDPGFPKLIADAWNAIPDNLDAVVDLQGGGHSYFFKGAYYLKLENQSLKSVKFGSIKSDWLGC
As to the kind of experiment: MMP enzymatic assay (Trupoint peptide), MMP-2. It counts as biochemical. The method, then:
[formula] • 1) Prepare appropriate 1×MMP assay buffer from 10× stock. […] Need to prepare a 2.5× concentration stock (2.5 μM) to achieve this concentration in 50 μl. Dilute compound to 2.5 mM in 100% DMSO (a 1:40 dilution), then dilute the 2.5 mM compound to 2.5 μM (1:1000) into 1× assay buffer. Make 1 ml 2.5 μM compound in assay buffer. • 4) Fill the rows B through P of a 384-well plate with assay buffer+0.1% DMSO. • 5) Add 30 ul of the 2.5 μM compound in assay buffer to the top row of the plate, doing each compound in triplicate. The plate setup should be as follows, using GM6001 as plate reference compound:
• 6) Serially dilute 10 μl down the plate to achieve 1:3 dilutions in subsequent wells. After each dilution, change pipette tips to avoid compound carryover. Discard the remaining 10 μl after diluting into the final row. • 7) Prepare enzyme dilutions at 2.5× of final desired concentration (see below). Will need 10 ml enzyme solution per plate. Add enzyme to plate, 20 μl per well. Incubate 1 hr.
• 8) Dilute the 500 μM Trupoint peptide 1:1000 into assay buffer to achieve a 5× working stock of 500 nM. Prepare 5 ml total per plate. Add 10 ul of substrate to each well to achieve a final concentration of 100 nM in well. Also prepare background subtraction wells by adding 10 μl 5× substrate to 40 μl assay buffer per well, typically do ˜32 wells. • 9) Incubate assay at room temperature for 15 min. Read in plate reader.
(§1) Analysis Specifications • Calculate average background value from substrate/assay buffer wells • Subtract this from entire plate • Calculate average of DMSO wells for each enzyme. This is the positive control, 100% value. • For each well, calculate percent of control by dividing well value by the average DMSO value obtained above. • Paste percent of control values into Graphpad Prism 4.0.

The next experiment addresses T2, MMP-9 (Homo sapiens, UniProt P14780).
T2 construct: Human MMP-9 catalytic domain (aa 107-446)
As to the kind of experiment: MMP enzymatic assay (Trupoint peptide), MMP-9. It counts as biochemical. The method, then:
[formula] • 1) Prepare appropriate 1×MMP assay buffer from 10× stock. […] The plate setup should be as follows, using GM6001 as plate reference compound:
• 6) Serially dilute 10 μl down the plate to achieve 1:3 dilutions in subsequent wells. After each dilution, change pipette tips to avoid compound carryover. […] Will need 10 ml enzyme solution per plate. Add enzyme to plate, 20 μl per well. Incubate 1 hr.
Prepare 5 ml total per plate. Add 10 ul of substrate to each well to achieve a final concentration of 100 nM in well. […] Read in plate reader.
as §1

Like-named read-outs stand apart in the source and are kept apart here.

T2 sequence (P14780 107-446): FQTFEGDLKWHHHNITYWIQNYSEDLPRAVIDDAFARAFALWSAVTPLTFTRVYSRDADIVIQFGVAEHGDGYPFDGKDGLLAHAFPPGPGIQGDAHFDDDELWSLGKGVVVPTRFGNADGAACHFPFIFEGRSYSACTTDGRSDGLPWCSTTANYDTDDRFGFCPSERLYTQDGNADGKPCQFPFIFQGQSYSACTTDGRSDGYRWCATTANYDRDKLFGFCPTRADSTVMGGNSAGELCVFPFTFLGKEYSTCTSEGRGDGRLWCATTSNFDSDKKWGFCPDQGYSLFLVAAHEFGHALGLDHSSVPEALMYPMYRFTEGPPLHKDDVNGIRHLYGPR

Broadly, the IC50 is the midpoint of a concentration-inhibition curve. For `Cc1ccc(Oc2ccc(N(Cc3c(C)ccn(O)c3=O)S(C)(=O)=O)cc2)cc1` [Compound 48, N-(1-Hydroxy-4-methyl-2-oxo-1,2-dihydro-pyridin-3-ylmethyl)-N-(4-p-tolyloxy-phenyl)-methanesulfonamide], the figures for the IC50 against MMP-2 and against MMP-9 were more than 1000 nM and 457 nM, respectively.
On to `Cc1ccc(Oc2ccc(N(Cc3cc(Br)cn(O)c3=O)S(C)(=O)=O)cc2)cc1` [Compound 49, N-(5-Bromo-1-hydroxy-2-oxo-1,2-dihydro-pyridin-3-ylmethyl)-N-(4-p-tolyloxy-phenyl)-methanesulfonamide], for which the IC50 stood at 547 nM at MMP-2 and 116 nM against MMP-9.
On the same counts, the results for `Cc1ccc(Oc2ccc(N(C(C)c3cccn(O)c3=O)S(C)(=O)=O)cc2)cc1` (centres unmarked) [Compound 50, N-[1-(1-Hydroxy-2-oxo-1,2-dihydro-pyridin-3-yl)-ethyl]-N-(4-p-tolyloxy-phenyl)-methanesulfonamide] are 2550 nM and 223 nM.
For the molecule `Cc1ccc(Oc2ccc(N(Cc3cc(C)cn(O)c3=O)S(C)(=O)=O)cc2)cc1` [Compound 51, N-(1-Hydroxy-5-methyl-2-oxo-1,2-dihydro-pyridin-3-ylmethyl)-N-(4-p-tolyloxy-phenyl)-methanesulfonamide], the IC50 stood at 241 nM on MMP-2 and 43.9 nM on MMP-9.
On the same counts, the results for `Cc1ccc(Oc2ccc(N(Cc3cc(-c4ccccc4)cn(O)c3=O)S(C)(=O)=O)cc2)cc1` [Compound 52, N-(1-Hydroxy-2-oxo-5-phenyl-1,2-dihydro-pyridin-3-ylmethyl)-N-(4-p-tolyloxy-phenyl)-methanesulfonamide] are 914 nM and 317 nM.
For `COc1ccc(Oc2ccc(N(Cc3cccn(O)c3=O)S(C)(=O)=O)cc2)cc1` [Compound 53, N-(1-Hydroxy-2-oxo-1,2-dihydro-pyridin-3-ylmethyl)-N-[4-(4-methoxy-phenoxy)-phenyl]-methanesulfonamide], the half-inhibitory concentration (IC50) against MMP-2 was 184 nM; at MMP-9, 14.7 nM.
On the same counts, the results for `CS(=O)(=O)N(Cc1cccn(O)c1=O)c1ccc(Oc2ccc(OC(F)(F)F)cc2)cc1` [Compound 54, N-(1-Hydroxy-2-oxo-1,2-dihydro-pyridin-3-ylmethyl)-N-[4-(4-trifluoro-methoxy-phenoxy)-phenyl]-methanesulfonamide] are 466 nM and 11.1 nM.
As to `Cc1ccc(C#Cc2ccc(N(Cc3cccn(O)c3=O)S(C)(=O)=O)cc2)cc1` [Compound 55, N-(1-Hydroxy-2-oxo-1,2-dihydro-pyridin-3-ylmethyl)-N-(4-p-tolylethynyl-phenyl)-methanesulfonamide], the IC50 against MMP-2 and against MMP-9 was more than 10000 nM in each case.
Consider `Cc1ccc(C#Cc2ccc(N(Cc3cccn(O)c3=S)S(C)(=O)=O)cc2)cc1` [Compound 56, N-(1-Hydroxy-2-thioxo-1,2-dihydro-pyridin-3-ylmethyl)-N-(4-p-tolylethynyl-phenyl)-methanesulfonamide], for which the IC50 against MMP-2 and against MMP-9 was more than 10000 nM in each case.
Turning to `O=C1[C@H](NS(=O)(=O)c2ccc(Oc3ccc(C(F)(F)F)cc3)cc2)CCCN1O` [Compound 58, (R)—N-(1-Hydroxy-2-oxo-piperidin-3-yl)-4-(4-trifluoromethyl-phenoxy)-benzenesulfonamide], the IC50 is 46.7 nM against MMP-2 and 743 nM at MMP-9.
With `Cc1ccc(S(=O)(=O)Cn2cccc(O)c2=O)cc1` [Compound 60, 3-Hydroxy-1-(toluene-4-sulfonylmethyl)-1H-pyridin-2-one], the IC50 turned out to be 468 nM on MMP-2 (read-out: MMP-2 nM IC50) and 1070 nM against MMP-9.
On the same counts, the results for `Cc1ccc(Oc2ccc(S(=O)(=O)Cn3cccc(O)c3=O)cc2)cc1` [Compound 61, 3-Hydroxy-1-(4-p-tolyloxy-benzenesulfonylmethyl)-1H-pyridin-2-one] are 16.7 nM and 45.8 nM.
As for `O=c1c(O)cccn1CS(=O)(=O)c1ccc(Oc2ccc(OC(F)(F)F)cc2)cc1` [Compound 62, 3-Hydroxy-1-[4-(4-trifluoromethoxy-phenoxy)-benzenesulfonylmethyl]-1H-pyridin-2-one], the IC50 on MMP-2 worked out at 13.6 nM; at MMP-9 it was 4.91 nM.
Take `O=c1c(O)cccn1CS(=O)(=O)c1ccc(Br)s1` [Compound 63, 1-(5-Bromo-thiophene-2-sulfonylmethyl)-3-hydroxy-1H-pyridin-2-one]: the IC50 against MMP-2 was more than 1000 nM; against MMP-9, 668 nM.
As for `COc1ccc(-c2ccc(S(=O)(=O)Cn3cccc(O)c3=O)s2)cc1` [Compound 64, 3-Hydroxy-1-[5-(4-methoxy-phenyl)-thiophene-2-sulfonylmethyl]-1H-pyridin-2-one], the IC50 amounted to 185 nM at MMP-2 (read-out: MMP-2 nM IC50) and 522 nM on MMP-9.
`O=c1c(O)cccn1CS(=O)(=O)c1ccc(Br)cc1` [Compound 65, 1-(4-Bromo-benzenesulfonylmethyl)-3-hydroxy-1H-pyridin-2-one]: the IC50 at MMP-2 and on MMP-9 was more than 1000 nM each time.
In the case of `COc1ccc(Oc2ccc(S(=O)(=O)Cn3cccc(O)c3=O)cc2)cc1` [Compound 66, 3-Hydroxy-1-[4-(4-methoxy-phenoxy)-benzenesulfonylmethyl]-1H-pyridin-2-one], the IC50 at MMP-2 (read-out: MMP-2 nM IC50) stood at 84.5 nM; against MMP-9, 56.1 nM.
For `COc1ccc(-c2ccc(S(=O)(=O)Cn3cccc(O)c3=O)cc2)cc1` [Compound 67, 3-Hydroxy-1-(4′-methoxy-biphenyl-4-sulfonylmethyl)-1H-pyridin-2-one], the IC50 against MMP-2 and against MMP-9 was more than 10000 nM each time.
Turning to `CN1CCCN(O)C(=O)[C@@H]1CN(c1ccc(Oc2ccc(C(F)(F)F)cc2)cc1)S(C)(=O)=O` [Compound 68, (3S)-1-Hydroxy-3-{N-methanesulfonyl-N-[4-(4-trifluoromethylphenoxy)-phenyl]amino}methyl-4-methyl-1,4-diazepan-2-one], the values for the IC50 on MMP-2 and against MMP-9 were 1250 nM and 406 nM, respectively.
As for `O=C1[C@H](CS(=O)(=O)c2ccc(Oc3ccccc3)cc2)NCCCN1O` [Compound 69, (3R)-1-Hydroxy-3-(4-phenoxy)benzenesulfonylmethyl-1,4-diazepan-2-one], the values for the IC50 at MMP-2 and against MMP-9 were 46.7 nM and 30.6 nM, respectively.
For `COc1ccc(Oc2ccc(S(=O)(=O)C3CCCCN(O)C3=O)cc2)cc1` (centres unmarked) [Compound 70, 1-Hydroxy-3-[4-(4-methoxy-phenoxy)-benzenesulfonyl]-azepan-2-one], the IC50 on MMP-2 (read-out: MMP-2 nM IC50) was determined as 95.9 nM; at MMP-9, 31 nM.
In the case of `O=C1C(S(=O)(=O)c2ccc(Oc3ccc(OC(F)(F)F)cc3)cc2)CCCCN1O` (centres unmarked) [Compound 71, 1-Hydroxy-3-[4-(4-trifluoromethoxy-phenoxy)-benzenesulfonyl]-azepan-2-one], the IC50 turned out to be 110 nM at MMP-2 and 44.4 nM at MMP-9.
Consider `COc1ccc(Oc2ccc(S(=O)(=O)C3CCCN(O)C3=O)cc2)cc1` (centres unmarked) [Compound 72, 1-Hydroxy-3-[4-(4-methoxy-phenoxy)-benzenesulfonyl]-piperidin-2-one], for which the IC50 at MMP-2 (read-out: MMP-2 nM IC50) came to 167 nM; at MMP-9, 87.9 nM.
Consider `O=C1C(S(=O)(=O)c2ccc(-c3nc4cc(C(F)(F)F)ccc4[nH]3)cc2)CCCCN1O` (centres unmarked) [Compound 74, 1-Hydroxy-3-[4-(5-trifluoromethyl-1H-benzoimidazol-2-yl)-benzenesulfonyl]-azepan-2-one], for which the IC50 on MMP-2 and on MMP-9 was more than 1000 nM throughout.
As for `Cc1ccc2[nH]c(-c3ccc(S(=O)(=O)C4CCCCN(O)C4=O)cc3)nc2c1` (centres unmarked) [Compound 75, 1-Hydroxy-3-[4-(5-methyl-1H-benzoimidazol-2-yl)-benzenesulfonyl]-azepan-2-one], the IC50 at MMP-2 and at MMP-9 was more than 1000 nM in each case.
